Several values for one entry are separate records, joined by “and”; a condition that tells them apart may be missing. Equal entries are not always repeated.

This experiment deals with 454973-116-R2-J3-PDC spheroids, percent test/control viability. Kind of experiment: Anticancer human tumor 454973-116-R2-J3-PDC patient-derived pancreatic carcinoma cell line growth inhibition [CLK]. Particulars: spheroids with HUVEC and MSC; for viability, T/C: stronger effect = lower value. An excerpt: A high-throughput screen of multi-cell type tumor spheroids was designed to identify active combinations of […] and targeted small molecules. Complex spheroids include a stromal component modeled by human endothelial cells (HUVEC) and fibroblasts modeled by human mesenchymal stem cells (MSCs). The concentration ranges selected for each drug and investigational agent were based upon clinically achievable concentrations if the clinical Cmax of the agent was known.
Compounds. The drugs and investigational agents: cirtuvivint (SM08502; NSC835563), CC-671 (NSC850746), vemurafenib (NSC761431), tapotoclax (NSC804041), sotorasib (NSC818433), adagrasib (NSC831453), MRTX-1133 (NSC836407), BAY2416964 (NSC825713), copanlisib (NSC816437), inavolisib (NSC800729), abemaciclib (NSC768073), osimertinib (NSC779217), entinostat (NSC756642), eltanexor (KPT-8602, NSC794443), venetoclax (NSC766270), ceralasertib (NSC777638), bortezomib (NSC756655), olaparib (NSC753686), talazoparib (NSC767125), alisertib (NSC759677), peposertib (NSC802822), gemcitabine (NSC613327), 5-fluorouracil (NSC19893), SN-38 (NSC673596), oxaliplatin (NSC266046), paclitaxel (NSC125973), and doxorubicin (NSC123127), were obtained from the National Cancer Institute (NCI) Developmental Therapeutics Program Chemical Repository. The FDA-approved anticancer drug set is available from the Developmental Therapeutics Program at https://dtp.cancer.gov/organization/dscb/obtaining/available plates.htm. […] The stock solutions were prepared in dimethyl sulfoxide (DMSO, Sigma-Aldrich, St. Louis, MO, cat. D2650), except for the platinum complexes which were prepared in saline (Quality Biological, Gaithersburg, MD, cat. 114-055-101), at 800-fold the tested concentration and stored at -70 degrees C prior to their use. All drugs and investigational agents were tested over a range starting from a high concentration at or near the clinical Cmax and decreasing in half-log increments. If the clinical Cmax for an agent had not been determined, the highest concentration tested was 10 microM.
Cell Culture. All cells were maintained in an incubator at 37 degrees C and 5% CO2 with 95% humidity. The PDC lines were cultured according to standard operating procedures established by the NCI PDMR. Briefly, all PDCs were thawed and cultured in Matrigel-coated flasks prepared with a working solution of 1X Ham's F-12 nutrient mix, without supplementation (Invitrogen, Waltham, MA, cat. 11765054), 100 U/mL penicillin-streptomycin (Invitrogen, cat. 15140122), and 2.5% Matrigel (Corning Inc., Corning, NY, cat. 354248) for the first three passages. The 947758-054-R-J2-PDC line was cultured in 6B/Colon 1A media, which includes advanced DMEM/F-12 (Thermo Fisher Scientific, cat. 12634028), 10 mM HEPES (Thermo Fisher Scientific, cat. 15630080), 1X GlutaMAX supplement (Thermo Fisher Scientific, cat. 35050061), 0.1 mg/mL primocin (InvivoGen, cat. ant-pm-2), 10% defined fetal bovine serum, heat inactivated (HyClone Laboratories Inc., cat. SH30070.03HI), 1.25 mM N-Acetyl-L-cysteine (Sigma-Aldrich, cat. A9165), 10 mM nicotinamide (Sigma-Aldrich, cat. N0636), 1X B-27 supplement (Thermo Fisher Scientific, cat. 17504044), 1X N-2 supplement (Thermo Fisher Scientific, cat. 17502048), and 10 microM Y-27632 dihydrochloride (Tocris Bioscience, cat. 1254). The 876862-298-R-J1-PDC was cultured in 6E media, which includes all 6B/Colon 1A media components plus 50% L-WRN conditioned media (ATCC, cat. CRL-3276), 50 ng/mL recombinant human EGF recombinant protein (hEGF; Thermo Fisher Scientific, cat. PHG0311), 10 ng/mL recombinant human fibroblast growth factor 10 (hGFG-10; PeproTech, cat. 100-26), 1 ng/mL recombinant human fibroblast growth factor 2 (hFGF-2; PeproTech, cat. 100-18B), and 1 µM prostaglandin E2 (PGE2; Tocris, cat. 2296). The 227483-062-R1-J1-PDC line was cultured in Panc media, containing all 6E components except hFGF-2, with the addition of 500 nM SB-431542 (Selleckchem, cat. S1067) and 10 nM gastrin (Tocris, cat. 3006). […]
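Also: spheroids exposed to compounds for 7 days before readout.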

As for `C#Cc1c(F)ccc2cc(O)cc(-c3ncc4c(N5CC6CCC(C5)N6)nc(OCC56CCCN5CC(F)C6)nc4c3F)c12` (stereo not given), the viability, T/C runs as follows: (compound 0.0316 µM) 57% and 54.6%; (compound 0.1 µM) 43.1% and 39.1%; (compound 0.316 µM) 33.8% and 39.8%; (compound 1 µM) 29.4% and 31.3%; (compound 3.16 µM) 30.1% and 29.4%; (compound 10 µM) 22.2% and 18.5%. Further, for the setting “curve of compound”, the IC50 is 55.8 nM and 43.5 nM.

Consider `C=C(F)C(=O)N1CCN(c2nc(OCC3CCCN3C)nc3c2CCN(c2cccc4cccc(Cl)c24)C3)CC1CC#N` (stereo not given), for which the viability, T/C (compound 0.0316 µM) was 105% and 106%; the viability, T/C (compound 0.1 µM) was 102% and 107%; the viability, T/C (compound 0.316 µM) is 110% and 114%; the viability, T/C (compound 1 µM) is 93.8% and 109%; the viability, T/C (compound 3.16 µM) was 104% and 105%; the viability, T/C (compound 10 µM) is 1.39% and 0.39%. The IC50 (curve of compound) was 5770 nM and 5780 nM.

On to `C=CC(=O)N1CCN(c2nc(=O)n(-c3c(C)ccnc3C(C)C)c3nc(-c4c(O)cccc4F)c(F)cc23)C(C)C1` (stereo not given), for which the viability, T/C is 107% and 99.3% (compound 0.0316 µM); 107% and 106% (compound 0.1 µM); 107% and 105% (compound 0.316 µM); 110% and 97.4% (compound 1 µM); 124% and 116% (compound 3.16 µM); 124% and 118% (compound 10 µM). The IC50 (curve of compound) was over 10000 nM.

Consider `C=CC(=O)Nc1cc(Nc2nccc(-c3cn(C)c4ccccc34)n2)c(OC)cc1N(C)CCN(C)C`, for which the viability, T/C runs as follows: (compound 0.000949 µM) 104% and 111%; (compound 0.003 µM) 107% and 98.9%; (compound 0.00949 µM) 97.8% and 95%; (compound 0.03 µM) 105% and 108%; (compound 0.0949 µM) 115% and 111%; (compound 0.3 µM) 109% and 100%. The IC50 (curve of compound) is over 300 nM.

For `CC(C)CC(NC(=O)C(Cc1ccccc1)NC(=O)c1cnccn1)B(O)O` (stereo not given), the viability, T/C by setting is: (compound 0.000949 µM) 106% and 104%; (compound 0.003 µM) 47.9% and 34.1%; (compound 0.00949 µM) 0.32% and 0.38%; (compound 0.03 µM) 0.21% and 1.51%; (compound 0.0949 µM) 0.12% and 2.95%; (compound 0.3 µM) 0.11% and 1.42%. In addition, the IC50 (curve of compound) is 2.88 nM and 2.31 nM.

Consider `CC(CO)NC(=O)c1cc(-c2ccc(Cl)cc2)nn(-c2cnn(C)c2)c1=O` (stereo not given), for which the viability, T/C was 112% and 99.4% (compound 0.0316 µM); 106% and 92.4% (compound 0.1 µM); 114% and 111% (compound 0.316 µM); 99.3% and 107% (compound 1 µM); 103% and 109% (compound 3.16 µM); 71.3% and 79% (compound 10 µM). In addition, the IC50 (curve of compound) was over 10000 nM.

With `CCCS(=O)(=O)Nc1ccc(F)c(C(=O)c2c[nH]c3ncc(-c4ccc(Cl)cc4)cc23)c1F`, the viability, T/C by setting is: (compound 0.0316 µM) 99.6% and 110%; (compound 0.1 µM) 103% and 101%; (compound 0.316 µM) 112% and 105%; (compound 1 µM) 102% and 103%; (compound 3.16 µM) 108% and 101%; (compound 10 µM) 39.4% and 25.2%. In addition, the IC50 (curve of compound) was 8300 nM and 6870 nM.

Consider `CCN1CCN(Cc2ccc(Nc3ncc(F)c(-c4cc(F)c5nc(C)n(C(C)C)c5c4)n3)nc2)CC1`, for which the viability, T/C (compound 0.00316 µM) was 95.9% and 106%; the viability, T/C (compound 0.01 µM) is 99.1% and 87.2%; the viability, T/C (compound 0.0316 µM) was 89.6% and 75.1%; the viability, T/C (compound 0.1 µM) is 75.3% and 70.8%; the viability, T/C (compound 0.316 µM) was 60.3% and 65%; the viability, T/C (compound 1 µM) was 62.7% and 64.3%. The IC50 (curve of compound) was over 1000 nM.

For the molecule `CCc1c2c(nc3ccc(O)cc13)-c1cc3c(c(=O)n1C2)COC(=O)[C@]3(O)CC`, the viability, T/C runs as follows: (compound 0.00316 µM) 39.9% and 31.5%; (compound 0.01 µM) 15.9% and 14.3%; (compound 0.0316 µM) 12% and 13%; (compound 0.1 µM) 6.22% and 7.38%; (compound 0.316 µM) 2.81% and 3.92%; (compound 1 µM) 1.02% and 3.21%. Moreover, the IC50 (curve of compound) is under 3.16 nM.

For `CN1CCN(c2cc(C(=O)Nc3cc4cc(-c5cnn(C)c5)ccc4cn3)ccn2)CC1`, the viability, T/C runs as follows: (compound 0.0316 µM) 102% [middle of 12 runs]; (compound 0.1 µM) 81.8% [middle of 12 runs]; (compound 0.316 µM) 2.31% [middle of 11 runs]; (compound 1 µM) 0.41% [middle of 10 runs]; (compound 3.16 µM) 0.23% [middle of 9 runs]; (compound 10 µM) 0.25% [middle of 10 runs]. Also, the IC50 (compound alone, run of 09/18/2023) is 159 nM [middle of 9 runs].

As for `CNC(=O)c1ccc(Nc2nc(OC3CCCC3)c3c(-c4ccc5nc(C)oc5c4)c[nH]c3n2)c(OC)c1`, the viability, T/C reads like this: (compound 0.0316 µM) 106% [middle of 12 runs]; (compound 0.1 µM) 104% [middle of 12 runs]; (compound 0.316 µM) 47.8% [middle of 12 runs]; (compound 1 µM) 30.7% [middle of 12 runs]; (compound 3.16 µM) 26.1% [middle of 12 runs]; (compound 10 µM) 28.5% [middle of 11 runs]. The concentration for half-maximal inhibition (IC50) (compound alone, run of 09/19/2023) was 302 nM [middle of 12 runs].

As to `COC1C=CCC(C)C(C)S(=O)(=O)NC(=O)c2ccc3c(c2)N(CC2CCC21)CC1(CCCc2cc(Cl)ccc21)CO3` (stereo not given), the viability, T/C by setting is: (compound 0.0316 µM) 109% and 95.4%; (compound 0.1 µM) 103% and 97.3%; (compound 0.316 µM) 95.6% and 90.4%; (compound 1 µM) 94.7%; (compound 3.16 µM) 99.9% and 80.9%; (compound 10 µM) 8.41% and 5.61%. In addition, the IC50 (curve of compound) was 5920 nM and 5070 nM.

For the molecule `COc1c(OCCCN2CCOCC2)ccc2c3n(c(=NC(=O)c4cnc(N)nc4)nc12)CCN3`, the viability, T/C is 97.1% and 109% (compound 0.00316 µM); 98.4% and 90.9% (compound 0.01 µM); 99.2% and 75.2% (compound 0.0316 µM); 44% and 39% (compound 0.1 µM); 23.6% and 20.3% (compound 0.316 µM); 8.06% and 7.21% (compound 1 µM). Further, the IC50 (curve of compound) was 88.4 nM and 72.4 nM.

For the molecule `Cn1ncnc1[C@H]1c2n[nH]c(=O)c3cc(F)cc(c23)N[C@@H]1c1ccc(F)cc1`, the viability, T/C reads like this: (compound 0.000316 µM) 100% and 113%; (compound 0.001 µM) 96.3% and 104%; (compound 0.00316 µM) 105% and 102%; (compound 0.01 µM) 93.3% and 96.9%; (compound 0.0316 µM) 93.7% and 87.6%; (compound 0.1 µM) 91.9% and 89.7%. The IC50 (curve of compound) was over 100 nM.

For the molecule `NC(=O)C(=Cn1cnc(-c2cc(C(F)(F)F)cc(C(F)(F)F)c2)n1)c1cncnc1`, the viability, T/C reads like this: (compound 0.00949 µM) 97.3% and 100%; (compound 0.03 µM) 97% and 95.2%; (compound 0.0949 µM) 83.1% and 78.2%; (compound 0.3 µM) 63.3% and 48.4%; (compound 0.949 µM) 42.4% and 35.4%; (compound 3 µM) 21.7% and 10.8%. The IC50 (curve of compound) is 614 nM and 362 nM.

As usually defined, the viability, T/C is the result in the treated group divided by that in the control group, in per cent. One may read the IC50 as the concentration that gives 50% inhibition.

Source of the values: PubChem BioAssay AID2060618 (Molecular Pharmacology Branch, DTP, NCI, 2025).
